{
  "source": "patent US8332028B2",
  "about": "“Protected lithium electrodes for electro-transport drug delivery” (PolyPlus Battery Company, priority 2006, dated 2012)",
  "test": "in vitro Li delivery through pig skin in a flow-through Li-AgCl cell (protected Li metal foil donor electrode)",
  "type": "in vitro ADME",
  "protocol": "The glass receptor compartment was similar to one described by Phipps et al. (1988) Solid State Ionics 28-30: 1778-1783, for ionophoretic drug delivery experiments. The receptor compartment was filled with RPMI-1640 Medium (Sigma Aldrich). The antibiotic gentamicin sulphate was added to the receptor compartment fluid to inhibit bacterial growth.\nThe prepared skin was stored in RPMI-1640 medium overnight before the start of the experiment. The skin was placed on the receptor chamber and kept in place and stretched out with an O-ring around the neck of the chamber. The visceral surface of the skin was in contact with the receptor fluid.\nA square 1 cm×1 cm silver chloride cathode with a capacity of approximately 40 mAh was introduced into the receptor chamber through a port. A multi-channel peristaltic pump was used to create a flow of the RPMI-1640 medium through receptor compartments of several cells. In our experiments we used a flow rate of 2.1 mL/hr. Periodic sampling of the receptor compartment fluid was performed automatically. The temperature inside the water-jacketed receptor compartment was kept at 37° C. The fluid inside the receptor compartment was stirred with a magnetic stir bar.\nThe donor chamber was positioned over the skin. It contained Li metal foil and a protective architecture enabling the use of Li in an aqueous environment. The protective architecture comprised a 150 micron thick barrier layer composed of a glass ceramic solid electrolyte plate (AG-01 material from OHARA Corporation with ionic conductivity of ˜10^−4 S/cm) and an anolyte interlayer located between the Li surface and the glass ceramic plate barrier layer. […]\nThe donor-acceptor chamber assembly was kept in place using a clamp. […] Li content in the fluid samples taken from receptor compartment was analyzed by ICP-MS.\nThe rate of Li delivery into the receptor compartment was calculated as a product of Li concentration and the flow rate of the receptor fluid.",
  "data": [
    {"smiles": "[Li]", "note": "[Li, lithium]", "values": [
      {"measurement": "Li content in receptor fluid samples, comparison of current densities", "setting": "0.2 mA/cm^2 vs 0.1 mA/cm^2, FIG. 9", "value": "significantly larger for the rate of 0.2 mA/cm^2 than for 0.1 mA/cm^2"},
      {"measurement": "initial Li content of the receptor solution", "setting": "before current passing", "value": "≤ 6", "unit": "µg/L"},
      {"measurement": "Li content in receptor fluid samples over time", "setting": "constant current 0.1 mA/cm^2 (27 hrs) and 0.2 mA/cm^2 (24 hrs), 37° C., RPMI-1640 receptor fluid, ICP-MS, FIG. 9", "value": "gradually increased over time"}
    ]}
  ]
}
